The source of these data is PMC12067444, “Synthesis and Pharmacological Characterization of Novel Peripheral Cannabinoid-1 Receptor Blockers Based on a Tricyclic Scaffold” (Journal of Medicinal Chemistry, 2025).

A short description of data set [1]: Protein binding in mouse brain, equilibrium dialysis. The conditions noted are these: mouse. As to the method: (§1) Protein binding of test compound in mouse brain using equilibrium dialysis […]
(§2) method. Solution A (0. 5 mM) was prepared by mixing 10 µL of a 10 mM stock solution […]
(§3) with 190 µL of DMSO. Subsequently, Solution B (0.02 mM) was prepared by adding […]
(§4) 8 µL of solution A to 192 µL of 0.05 M sodium phosphate buffer. The final concentration of DMSO in Solution B was 4%.
(§5) A 96-well plate was initially prepared by dispensing 380 µL aliquots of brain […]
(§6) tissue into wells designated for the brain while t h e buffer was added to the remaining […]
(§7) wells to serve as a control. Subsequently, 20 µL of Solution B (containing 0.02 mM of […]
(§8) test and reference compounds) was spiked into the pre-loaded brain samples in the […]
(§9) plate. This step yielded a final test concentration of 1 µM, containing 0.2% DMSO. A duplicate system was establi shed for the dialysis sampl es wherein brain tissu e was prepared against buffer. Initially, 100 µL aliquots of blank dialysis buffer were applied to the receiver side of the dialysis chambers. Subsequently, 100 µL aliquots of the brain […]
(§10) tissue spiked with te st and reference compounds were applied to the donor side of the […]
(§11) T0 brain samples for initial concentrations were prepared in duplicate. A 25µL […]
(§12) aliquot of the brain spiked with test and reference compounds was transferred into a 96- […]
(§13) well sample preparation plate. An equivalent volume of blank buffer was then added […]
(§14) to each well. Af ter the 5-hour incubation period, aliquots of 25 µL wer e taken f r om t h e […]
(§15) dialysis apparatus's donor and receiver sides and transferred into new sample […]
(§16) preparation plates. An equal volume of the opposite matrix (blank buffer to brain and […]
(§17) vice versa) was added to each well, resulting in a final volume of 50 µL in each well.
(§18) The samples (both T0 and f i v e h) were then quenched with 200 µL of acetonitrile […]
(§19) containing internal standard (IS) and vortexed at 600 rpm for 10 minutes. After […]
(§20) vortexing, the samples were centrifuged at 5594 × g for 15 minutes. Subsequently, 50 […]
(§21) µL of the supernatants were transferred to a new 96-well plate and mixed with 50 µL […]
(§22) of Milli- Q water. T he sample plates wer e cover ed and stor ed in a f r eezer ( -20 ℃) until […]
(§23) respectively. For data analysis, the following equations wer e used:
(§24) % Bound = 100 × ([Donor]5h -[ Receiver] 5h) / [Donor] 5h
(§25) % Recovery= 100 × ([Donor]5h +[Receiver] 5h) / [Initial] 0h
(§26) Undiluted Fu (%) = (1/D) / [(1/Fu2-1 ) + 1/ D ]
(§27) Whereas; D: Dilution factor = Dilution factor of brain: 4
(In equilibrium dialysis free small molecules cross a membrane that holds back macromolecules.)

A further data set concerns mouse brain tissue. Described as above. As to the method:
as §1, §2, §3, §4, §5, §6, §7, §8, §9, §10, §11, §12, §13, §14, §15, §16, §17, §18, §19, §20, §21, §22, §23, §24, §25, §26, §27

The next data set deals with T1, CYP2D6 (Homo sapiens, UniProt P10635).
T1 construct: from tissue; host or cells: human liver microsomes
Kind of data set: CYP inhibition in human liver microsomes. The data set is classed as in vitro ADME. Particulars: probe dextromethorphan, dextromethorphan substrate. As to the method:
(§28) Human liver microsomes were incubated with the test compounds at 0.2 mg/mL of microsomal protein. The incubation was conducted at 37 °C in the presence of a NADPH (β-Nicotinamide adenine dinucleotide phosphate reduced form) regenerating system at a concentration of approximately 10 mM. To assess CYP inhibition, positive control substrates were utilized, including Phenacetin (1A2 substrate), Diclofenac (2C9 substrate), S-mephenytoin (2C19 substrate), Dextromethorphan (2D6 substrate), and Midazolam (3A4 substrate). The mixture was centrifuged after a 10 min incubation period to precipitate the protein. Subsequently, the samples underwent LC-MS/MS analysis, and the IC50 values were calculated to ascertain the inhibitory potency of the test compounds on specific CYP enzymes.

In the next data set the target is T2, CYP1A2 (Homo sapiens, UniProt P05177).
T2 construct: from tissue; host or cells: human liver microsomes
T2 sequence (P05177 1-516): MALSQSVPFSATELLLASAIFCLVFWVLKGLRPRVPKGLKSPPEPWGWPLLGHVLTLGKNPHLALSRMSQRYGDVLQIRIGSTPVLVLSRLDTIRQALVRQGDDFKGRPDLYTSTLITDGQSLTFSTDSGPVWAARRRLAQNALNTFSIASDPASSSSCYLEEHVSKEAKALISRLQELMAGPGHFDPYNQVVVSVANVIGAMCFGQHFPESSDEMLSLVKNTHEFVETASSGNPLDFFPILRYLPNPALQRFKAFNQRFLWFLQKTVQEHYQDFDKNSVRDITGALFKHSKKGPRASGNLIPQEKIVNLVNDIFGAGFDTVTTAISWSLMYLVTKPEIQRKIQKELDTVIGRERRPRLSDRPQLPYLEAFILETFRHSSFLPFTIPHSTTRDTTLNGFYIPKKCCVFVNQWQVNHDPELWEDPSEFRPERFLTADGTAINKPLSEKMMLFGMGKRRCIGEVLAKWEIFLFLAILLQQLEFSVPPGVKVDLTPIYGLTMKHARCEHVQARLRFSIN
In words: CYP inhibition in human liver microsomes. The data set is classed as in vitro ADME. Particulars: probe phenacetin, phenacetin substrate. As to the method: as §28
On the technique in general: Microsomes from liver hold many membrane-bound enzymes, among them those of drug oxidation.

A short description of data set [2]: Tissue distribution after chronic oral administration in diet-induced obese mice. The conditions noted are these: C57Bl/6J, mouse, brain; 1 mg/kg PO for 24 days, DIO mice, 24 h after last dose; read-out: brain concentration after chronic treatment. The data set is classed as in vivo. As to the method: Tissue distribution after chronic administration was conducted similarly, except tissue collection was performed 24 h after the last drug administration and analyzed in the same manner as previously described.
Supplementary F igure 2. BNS808 biodistribution and pharm acokinet ics aft er chronic P O adm inist rat ion. The accumulation of BNS808 in organs/plasma was evaluated by analyzing the BNS808 levels in the plasma, brain, and liver post-chronic administration of 1 mg/kg PO for 24 days in diet-induced obese mice. Data r epr esent the mean ± SE M of 4 mice per gr oup.
(1 picture or pasted object on this page, not shown here)

Data set [3] in a line: Brain compound levels in the CNS side-effect study (Figure 2H). The data set is classed as in vivo. Particulars: male, C57Bl/6J, mouse, in vivo; BNS808 PO (1 or 10 mg/kg, dose not stated), 1 h after administration. As to the method:
The ability of BNS808 and rimonabant (as a positive control) to induce centrally mediated hyperactivity in mice (A–C). Wild-type, male, C57Bl/6J mice received a single dose of rimonabant (10 mg/kg, PO), BNS808 (1 or 10 mg/kg, PO) or vehicle, and the Promethion High-Definition Behavioral Phenotyping System monitored the activity profile. In addition, the ability of BNS808 and rimonabant (as a positive control) to inhibit the hypomotility induced by a CB1R receptor agonist (HU210; 30 μg/kg, IP) was tested in wild-type, male, C57Bl/6J mice which received a single dose of rimonabant (10 mg/kg, PO) or BNS808 (1 or 10 mg/kg, PO) or vehicle (D–F). […] Data represent the mean ± SEM from 4 to 8 mice per group. *P < 0.05 vs Vehicle-treated control. ^#P < 0.05 vs rimonabant.

T1 sequence (P10635 whole entry): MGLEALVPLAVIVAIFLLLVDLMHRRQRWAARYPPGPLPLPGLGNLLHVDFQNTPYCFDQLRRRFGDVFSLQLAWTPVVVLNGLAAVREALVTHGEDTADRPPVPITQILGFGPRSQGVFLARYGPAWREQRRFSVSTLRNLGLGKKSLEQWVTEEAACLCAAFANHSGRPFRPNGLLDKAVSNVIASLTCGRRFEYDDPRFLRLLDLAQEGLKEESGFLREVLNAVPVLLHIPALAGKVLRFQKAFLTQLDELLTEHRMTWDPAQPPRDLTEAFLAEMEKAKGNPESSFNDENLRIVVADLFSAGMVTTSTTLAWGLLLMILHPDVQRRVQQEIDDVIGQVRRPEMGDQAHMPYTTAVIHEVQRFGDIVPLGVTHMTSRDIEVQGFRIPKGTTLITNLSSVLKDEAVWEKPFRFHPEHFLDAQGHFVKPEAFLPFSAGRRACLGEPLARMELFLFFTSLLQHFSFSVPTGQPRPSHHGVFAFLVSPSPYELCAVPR

Broadly, the IC50 is the concentration that inhibits the measured activity by half. Lower therefore signals greater potency in that assay. As for `O=S(=O)(NC1CCCOc2c1nn(-c1ccccc1Cl)c2-c1ccc(Cl)cc1)c1ccc(Cl)cc1` (centres unmarked) [BNS808, 4-chloro-N-[2-(2-chlorophenyl)-3-(4-chlorophenyl)-5,6,7,8-tetrahydrooxepino[3,2-c]pyrazol-8-yl]benzenesulfonamide], the recovery at 5 h, 1 µM in data set [1] turned out to be 81.8%. Further, the “protein binding in mouse brain (category)” value with mouse brain tissue (equilibrium dialysis, 1 µM, 5 h) was “extremely high protein binding and high”. The “Fraction of bound (%)” value with mouse brain tissue (mouse brain, diluted homogenate, 5 h) is recorded as 100%. Further, the “Undiluted Bound (%)” value in the data set on mouse brain tissue (mouse brain, dilution factor 4) is reported as 100.0%. The IC50 at 10 min at CYP2D6 and at CYP1A2 was greater than 50 µM each time. Further, in data set [2], the concentration at 24 h is roughly 20 ng/g. Moreover, the concentration at 1 h in data set [3] stood at 13 ng/g.
